The source of these data is US12594279B2, “Composition for preventing or treating TNF-α-related disease, comprising hydroflumethiazide as active ingredient” (SK CHEMICALS CO., LTD., priority 2020, dated 2026).

Counter-ions that a name gives are not always drawn.

Data set [1] relates to rheumatoid arthritis DBA-1J mouse model. The data set is described as follows: Size of lower extremity edema  in rheumatoid arthritis DBA-1J mouse model. Details: Size of lower extremity edema, Right Feet / Size of lower extremity edema, Left Feet: unit not given here. Format: in vivo. The protocol:
(§1) DBA-1J mice were purchased from Central Lab. Animal Inc. Bovine Type II collagen (2 mg/mL) was emulsified in 4 mg/mL of Complete Freund's adjuvant at 1:1, and then injected subcutaneously to the DBA-1J mice at the base of the tail with 100 μL/head to induce arthritis first. Then, after 3 weeks, Bovine Type II collagen (2 mg/mL) was emulsified in Incomplete Freund's adjuvant at 1:1 and injected subcutaneously to the DBA-1J mice at the base of the tail with 100 μL/head to prepare rheumatoid arthritis animal models.
(§2) As a normal control group, 0.5% methyl cellulose (MC) was orally administered to healthy DBA-1J mice, and as a comparative control group, 0.5% MC was orally administered to the prepared rheumatoid arthritis mouse models, daily for 2 weeks. Methotrexate (MTX, 2 mg/kg/2 day), hydroxychloroquine (HCQ, 80 mg/kg/day), which are commercially available therapeutic agents for rheumatoid arthritis, and hydroflumethiazide (5 mg/kg/day or 20 mg/kg/day) were orally administered daily for 2 weeks to the prepared rheumatoid arthritis mouse models, respectively.
Arthritis indices were measured on day 9 and 14 after the administration of each drug in each of the control groups and experimental groups on the basis of the following criteria. Reference: 0, No edema or swelling: 1, Mild edema and redness confined to the joint: 2, Mild edema and redness from the joint to carpal bone and tarsal bone: 3, Moderate edema and redness from the joint to carpal bone and tarsal bone: 4, Overall edema and redness and joint stiffness: 5. In the arthritis index, the highest score was set to 16 points by summing up the four limb scores. […]

Data set [2] shares this test system. The data set is described as follows: Histopathological quantification of ankle regions (H&E, safranin-O) in rheumatoid arthritis DBA-1J mouse model. The class given is in vivo. The protocol: as §1, §2
On day 14 of administration, the mice in each of the control groups and experimental groups were sacrificed, and then joint staining photographs were taken through the following process. The ankle areas of the sacrificed mice were subjected to general tissue treatment processes such as demineralization, trimming, dehydration, paraffin embedding, and microtome cutting to prepare specimens for histopathological examination. Then, Hematoxylin & Eosin (H&E) and safranin-O stainings were performed, and histopathological changes were observed using an optical microscope (FIG. 5).
In addition, the degrees of synovium proliferation, bone destruction, and cartilage damage were quantified, and the results are shown in Table 5 below.

The test system is the same in data set [3]. The data set can be described thus: Arthritis index in collagen-induced rheumatoid arthritis DBA-1J mouse model. Format: in vivo. The protocol: as §1, §2
[…] Reference: 0, No edema or swelling: 1, Mild edema and redness confined to the joint: 2, Mild edema and redness from the joint to carpal bone and tarsal bone: 3, Moderate edema and redness from the joint to carpal bone and tarsal bone: 4, Overall edema and redness and joint stiffness: 5. In the arthritis index, the highest score was set to 16 points by summing up the four limb scores. In addition, the size of the lower extremity edema was measured using a micrometer on day 14 after each drug was administered in each of the control groups and experimental groups.

A further data set has as its system TNF-α. The data set can be described thus: TNF-α expression level by ELISA in LPS-induced RAW 264.7 cells. To be noted: for TNF-α: LPS 10 ng/ml-induced RAW 264.7, ELISA. The class given is cell-based. The protocol:
In addition, in order to confirm an effect of inhibiting the TNF-α expression of hydroflumethiazide in induced inflammatory cells, an experiment was performed as follows. RAW 264.7 cells were treated with DMSO at a concentration of 0.01% (v/v) as an untreated control group, and the cells were treated with LPS at a concentration of 10 ng/ml as a control group to induce an inflammatory response. […] Then, the expression level of TNF-α was measured and compared through the ELISA method in the groups treated with respective drugs.

The test system of a further data set is RAW 264.7. The data set is described as follows: MTT assay cell viability. Format: cell-based. The note with it: for Cytotoxicity (MTT assay): concentrations of Table 1.
Data set [4] deals with rheumatoid arthritis DBA-1J mouse model. The data set can be described thus: Histopathological quantification of ankle regions (H&E, safranin-O) in rheumatoid arthritis DBA-1J mouse model. Format: in vivo. To be noted: oral, FIG. 6.
Setting [5] is: Mus musculus, RAW264.7, TNF-α, LPS-induced RAW 264.7, 20 uM.

For the molecule `CCN(CCO)CCCC(C)Nc1ccnc2cc(Cl)ccc12` (stereo not drawn) [HCQ, hydroxychloroquine], the “Size of lower extremity edema, Left Feet” value in data set [1] (Day 0, G4, 80 mg/kg/day oral) turned out to be 0.12 ± 0.02; in data set [1] (Day 14, G4, 80 mg/kg/day oral) it was 0.16 ± 0.04. The “Size of lower extremity edema, Right Feet” value in data set [1] (Day 0, G4, 80 mg/kg/day oral) was 0.11 ± 0.02; in data set [1] (Day 14, G4, 80 mg/kg/day oral) it was 0.15 ± 0.03. The molecule further displayed a Bone destruction in data set [2] (day 14, G4, 80 mg/kg/day oral) of 2.3 ± 0.5. Besides, the Cartilage damage in data set [2] (day 14, G4, 80 mg/kg/day oral) is listed as 2 ± 0.6. The Synovium proliferation in data set [2] (day 14, G4, 80 mg/kg/day oral) was 3 ± 0.0. Moreover, the “Total (synovium proliferation, cartilage damage, bone destruction)” value (“Total” for short) in data set [2] (day 14, G4, 80 mg/kg/day oral) came out at 7.3 ± 1.0. Besides, the Arthritis index was found to be 2.3 ± 1.4 in data set [3] (Day 0, G4, 80 mg/kg/day oral); 4.7 ± 1.2 in data set [3] (Day 2, G4, 80 mg/kg/day oral); 6 ± 1.3 in data set [3] (Day 4, G4, 80 mg/kg/day oral); 7 ± 1.3 in data set [3] (Day 7, G4, 80 mg/kg/day oral); 7.5 ± 1.2 in data set [3] (Day 9, G4, 80 mg/kg/day oral); 7.8 ± 1.2 in data set [3] (Day 11, G4, 80 mg/kg/day oral). In data set [3] (Day 14, G4, 80 mg/kg/day oral), this molecule registered an Arthritis index of 8.5 ± 1.5.
For the molecule `NS(=O)(=O)c1cc2c(cc1C(F)(F)F)NCNS2(=O)=O` [Hydroflumethiazide, hydroflumethiazide], the TNF-α was determined as 1466.48 pg/mL in the data set with TNF-α (0.1 uM), 1289.62 pg/mL with TNF-α (1 uM), 837.44 pg/mL with TNF-α (10 uM) and 625.65 pg/mL with TNF-α (20 uM). In addition, the inhibition (as a rule, the change of the read-out against control, counted positive when it falls) at 0.1 µM with TNF-α (Mus musculus, RAW264.7, TNF-α, LPS-induced RAW 264.7, 0.1 uM) is 20.8%. 1 µM produced 30.4% inhibition in the data set with TNF-α (Mus musculus, RAW264.7, TNF-α, LPS-induced RAW 264.7, 1 uM). This molecule returned an inhibition at 10 µM with TNF-α (Mus musculus, RAW264.7, TNF-α, LPS-induced RAW 264.7, 10 uM) of 54.8%. This molecule had an inhibition at 20 µM with TNF-α (setting [5]) of 66.2%. Moreover, the “Decrease of expression level of TNF-α” value in the data set with TNF-α (inflammatory response-induced RAW 264.7, at least 0.1 μM) was “at least 20%”. In the data set on TNF-α (inflammatory response-induced RAW 264.7, at least 1 μM), the “Expression level of TNF-α compared to the group treated with PS1145” value was “further decreased compared to the group treated with PS1145”. Moreover, the “Decrease of expression of TNF-α” value in the data set on TNF-α (inflammatory response-induced RAW 264.7, at least 10 μM) is on record as “at least 50%”. For the same molecule, the “Size of the lower extremity edema compared to the MTX-administered group” value in data set [1] (20 mg/kg/day, day 14) was “decreased at a similar level to the MTX-administered group”. Moreover, the “Size of lower extremity edema, Left Feet” value came out at 0.09 ± 0.01 in data set [1] (Day 0, G5, 5 mg/kg/day oral); 0.11 ± 0.03 in data set [1] (Day 0, G6, 20 mg/kg/day oral); 0.14 ± 0.02 in data set [1] (Day 14, G5, 5 mg/kg/day oral); 0.15 ± 0.03 in data set [1] (Day 14, G6, 20 mg/kg/day oral). In addition, the “Size of lower extremity edema, Right Feet” value was 0.11 ± 0.03 in data set [1] (Day 0, G5, 5 mg/kg/day oral); 0.1 ± 0.01 in data set [1] (Day 0, G6, 20 mg/kg/day oral); 0.15 ± 0.04 in data set [1] (Day 14, G5, 5 mg/kg/day oral); 0.15 ± 0.03 in data set [1] (Day 14, G6, 20 mg/kg/day oral). In addition, the Bone destruction in data set [2] (day 14, G5, 5 mg/kg/day oral) was 1.8 ± 1.0; in data set [2] (day 14, G6, 20 mg/kg/day oral), 2.5 ± 0.5 ^. The Cartilage damage in data set [2] (day 14, G5, 5 mg/kg/day oral) was determined as 2 ± 0.9; in data set [2] (day 14, G6, 20 mg/kg/day oral), 1.7 ± 0.8. For the same molecule, the Synovium proliferation in data set [2] (day 14, G5, 5 mg/kg/day oral) was 3 ± 0.0; in data set [2] (day 14, G6, 20 mg/kg/day oral), 2.2 ± 1.2. The “Total” value worked out at 6.8 ± 1.8 in data set [2] (day 14, G5, 5 mg/kg/day oral) and 6.3 ± 1.5 in data set [2] (day 14, G6, 20 mg/kg/day oral). Besides, the “Cytotoxicity (MTT assay)” value in the data set on RAW 264.7 is given as “cytotoxicity was not exhibited”. Besides, the Viability in the data set with RAW 264.7 (treatment concentration 0.1 uM) is reported as 106.35%; in the data set on RAW 264.7 (treatment concentration 1 uM), 101.82%; in the data set with RAW 264.7 (treatment concentration 10 uM), 105.73%; in the data set on RAW 264.7 (treatment concentration 20 uM), 101.11%. Further, in data set [3] (20 mg/kg/day, day 14), the “Arthritis index compared to the MTX-administered group” value was “decreased at a similar level to the MTX-administered group”. Further, the Arthritis index in data set [3] (Day 0, G5, 5 mg/kg/day oral) is on record as 2.3 ± 1; in data set [3] (Day 0, G6, 20 mg/kg/day oral) it was 2.3 ± 1; in data set [3] (Day 2, G5, 5 mg/kg/day oral) it was 4.2 ± 1.6; in data set [3] (Day 2, G6, 20 mg/kg/day oral) it was 4 ± 1.7; in data set [3] (Day 4, G5, 5 mg/kg/day oral) it was 5.8 ± 1.8; in data set [3] (Day 4, G6, 20 mg/kg/day oral), 5 ± 1.4. In addition, the Arthritis index is reported as 6 ± 2.1 in data set [3] (Day 7, G5, 5 mg/kg/day oral); 5.7 ± 1.5 in data set [3] (Day 7, G6, 20 mg/kg/day oral); 6.7 ± 2.0 in data set [3] (Day 9, G5, 5 mg/kg/day oral); 6.2 ± 1.7 in data set [3] (Day 9, G6, 20 mg/kg/day oral); 7.2 ± 1.7 in data set [3] (Day 11, G5, 5 mg/kg/day oral); 6.8 ± 1.6 in data set [3] (Day 11, G6, 20 mg/kg/day oral). Further, the Arthritis index was 8 ± 2.5 in data set [3] (Day 14, G5, 5 mg/kg/day oral) and 7.3 ± 2.3 in data set [3] (Day 14, G6, 20 mg/kg/day oral). Besides, in data set [3] (from day 9 of the administration), the “Arthritis index compared to the HCQ-administered group” value is recorded as “significantly decreased”. Moreover, in data set [4], the “Anti-arthritic effect compared to HCQ” value is listed as “superior to HCQ”.
On to `CN(Cc1cnc2nc(N)nc(N)c2n1)c1ccc(C(=O)N[C@@H](CCC(=O)O)C(=O)O)cc1` [MTX, Methotrexate], for which the “Size of lower extremity edema, Left Feet” value in data set [1] (Day 0, G3, 2 mg/kg/2 day oral) is on record as 0.11 ± 0.02; in data set [1] (Day 14, G3, 2 mg/kg/2 day oral), 0.12 ± 0.02. Also, the “Size of lower extremity edema, Right Feet” value in data set [1] (Day 0, G3, 2 mg/kg/2 day oral) came out at 0.1 ± 0.02; in data set [1] (Day 14, G3, 2 mg/kg/2 day oral), 0.15 ± 0.03. The Bone destruction in data set [2] (day 14, G3, 2 mg/kg/2 day oral) turned out to be 1.5 ± 0.8. This molecule came in with a Cartilage damage in data set [2] (day 14, G3, 2 mg/kg/2 day oral) of 1.3 ± 0.5. Further, the Synovium proliferation in data set [2] (day 14, G3, 2 mg/kg/2 day oral) is on record as 2.5 ± 0.5. The “Total” value in data set [2] (day 14, G3, 2 mg/kg/2 day oral) came to 5.3 ± 1.5. The Arthritis index in data set [3] (Day 0, G3, 2 mg/kg/2 day oral) came to 2.3 ± 1.6; in data set [3] (Day 2, G3, 2 mg/kg/2 day oral), 4.2 ± 1.0; in data set [3] (Day 4, G3, 2 mg/kg/2 day oral) it was 5 ± 1.3; in data set [3] (Day 7, G3, 2 mg/kg/2 day oral), 5.8 ± 1.3; in data set [3] (Day 9, G3, 2 mg/kg/2 day oral), 6.3 ± 1.4; in data set [3] (Day 11, G3, 2 mg/kg/2 day oral), 6.7 ± 1.5. In addition, the Arthritis index in data set [3] (Day 14, G3, 2 mg/kg/2 day oral) was found to be 7 ± 1.3.
For `O=C(Nc1cc(Cl)cc2c1[nH]c1cnccc12)c1cccnc1` [PS1145, N-(6-chloro-9H-pyrido[3,4-b]indol-8-yl)-3-pyridinecarboxamide dihydrochloride], the TNF-α in the data set on TNF-α (20 uM) came to 1402.08 pg/mL. This molecule also showed an inhibition at 20 µM with TNF-α (setting [5]) of 24.3%. In addition, in the data set on RAW 264.7, the “Cytotoxicity (MTT assay)” value was “cytotoxicity was not exhibited”. Moreover, the Viability with RAW 264.7 (treatment concentration 20 uM) came to 99.16%.
